Here are results for 19 molecules from patent US9951063B2, “8-(piperazin-1-yl)-1,2,3,4-tetrahydro-isoquinoline derivatives” (IDORSIA PHARMACEUTICALS LTD, priority 2014, dated 2018).

The term IC50 denotes the concentration that inhibits the measured activity by half.

human CXCR3A, sequence (P49682 whole entry): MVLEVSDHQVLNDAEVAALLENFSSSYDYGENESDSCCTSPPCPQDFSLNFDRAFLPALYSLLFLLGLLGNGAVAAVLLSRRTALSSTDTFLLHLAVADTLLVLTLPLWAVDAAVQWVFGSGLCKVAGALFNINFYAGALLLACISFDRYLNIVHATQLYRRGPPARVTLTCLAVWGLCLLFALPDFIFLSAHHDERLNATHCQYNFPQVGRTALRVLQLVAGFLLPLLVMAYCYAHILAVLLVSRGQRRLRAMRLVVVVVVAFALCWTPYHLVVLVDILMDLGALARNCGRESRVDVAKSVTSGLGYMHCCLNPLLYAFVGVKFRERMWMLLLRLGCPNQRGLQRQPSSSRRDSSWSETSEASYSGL

This assay has as its target human CXCR3A (Homo sapiens (Human), UniProt P49682). Briefly: FLIPR assay (inhibition of CXCL10-induced calcium signal). It counts as cell-based. The following applies: engineered CHO-K1 cells expressing human CXCR3A coupled to Galpha(16); Fluo-4-AM; CXCL10 agonist 20 nM; mean values where determined several times. An outline of the steps:
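CHO-K1 cells expressing human CXCR3A coupled to Gα16 were loaded with Fluo-4-AM for 1 h in HBSS/20 mM Hepes pH 7.4 with probenecid. Compound was added, then CXCL10 (20 nM as dispensed). Baseline-subtracted peak fluorescence gave inhibition curves and IC50, averaged over repeats.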
For `Cc1cc(C)n(CC(=O)N2CCN(c3ccc(C(F)(F)F)c4c3CN(c3ncc(Cl)s3)CC4)C[C@H]2C)n1` [Example 6, 1-{(R)-4-[2-(5-Chloro-thiazol-2-yl)-5-trifluoromethyl-1,2,3,4-tetrahydro-isoquinolin-8-yl]-2-methyl-piperazin-1-yl}-2-(3,5-dimethyl-pyrazol-1-yl)-ethanone], the IC50 stood at 18.1 nM. On to `C[C@@H]1CN(c2ccc(C(F)(F)F)c3c2CN(c2ccc(Cl)cc2)CC3)CCN1C(=O)Cn1cnc2cccnc21` [Example 21, 1-{(R)-4-[2-(4-Chloro-phenyl)-5-trifluoromethyl-1,2,3,4-tetrahydro-isoquinolin-8-yl]-2-methyl-piperazin-1-yl}-2-imidazo[4,5-b]pyridin-3-yl-ethanone], for which the IC50 is 29.9 nM. For `Cc1nc(C)n(CC(=O)N2CCN(c3ccc(C(F)(F)F)c4c3CN(c3nc5ccc(F)cc5s3)CC4)C[C@H]2C)n1` [Example 38, 2-(3,5-Dimethyl-[1,2,4]triazol-1-yl)-1-{(R)-4-[2-(6-fluoro-benzothiazol-2-yl)-5-trifluoromethyl-1,2,3,4-tetrahydro-isoquinolin-8-yl]-2-methyl-piperazin-1-yl}-ethanone] the value was 15.8 nM; for `C[C@@H]1CN(c2cccc3c2CN(C(=O)[C@@H]2CCCc4ccccc42)CC3)CCN1C(=O)Cn1cnc2cccnc21` [Example 71, 2-Imidazo[4,5-b]pyridin-3-yl-1-{(R)-2-methyl-4-[2-((R)-1,2,3,4-tetrahydro-naphthalene-1-carbonyl)-1,2,3,4-tetrahydro-isoquinolin-8-yl]-piperazin-1-yl}-ethanone], 80.2 nM; for `C[C@@H]1CN(c2cccc3c2CN(c2nc(C#N)cs2)CC3)CCN1C(=O)Cn1cnc2cccnc21` [Example 117, 2-{8-[(R)-4-(2-Imidazo[4,5-b]pyridin-3-yl-acetyl)-3-methyl-piperazin-1-yl]-3,4-dihydro-1H-isoquinolin-2-yl}-thiazole-4-carbonitrile], 3.7 nM. For `C[C@@H]1CN(c2cccc3c2CN(c2ccc(C(F)(F)F)nc2)CC3)CCN1C(=O)Cn1cnc2cccnc21` [Example 100, 2-Imidazo[4,5-b]pyridin-3-yl-1-{(R)-2-methyl-4-[2-(6-trifluoromethyl-pyridin-3-yl)-1,2,3,4-tetrahydro-isoquinolin-8-yl]-piperazin-1-yl}-ethanone] the value was 1.25 nM; for `CCOc1ncc(N2CCc3c(C(F)(F)F)ccc(N4CCN(C(=O)Cn5nc(C)nc5C)[C@H](C)C4)c3C2)cn1` [Example 54, 2-(3,5-Dimethyl-[1,2,4]triazol-1-yl)-1-{(R)-4-[2-(2-ethoxy-pyrimidin-5-yl)-5-trifluoromethyl-1,2,3,4-tetrahydro-isoquinolin-8-yl]-2-methyl-piperazin-1-yl}-ethanone], 6.22 nM. The figure for `CCOc1ncc(N2CCc3c(C(F)(F)F)ccc(N4CCN(C(=O)Cn5cc6cccnc6n5)CC4)c3C2)cn1` [Example 32, 1-{4-[2-(2-Ethoxy-pyrimidin-5-yl)-5-trifluoromethyl-1,2,3,4-tetrahydro-isoquinolin-8-yl]-piperazin-1-yl}-2-pyrazolo[3,4-b]pyridin-2-yl-ethanone] is 9.83 nM; for `COc1cccc(N2CCc3c(C(F)(F)F)ccc(N4CCN(C(=O)Cn5cnc6cccnc65)[C@H](C)C4)c3C2)c1` [Example 18, 2-Imidazo[4,5-b]pyridin-3-yl-1-{(R)-4-[2-(3-methoxy-phenyl)-5-trifluoromethyl-1,2,3,4-tetrahydro-isoquinolin-8-yl]-2-methyl-piperazin-1-yl}-ethanone] it is 13 nM. With `C[C@@H]1CN(c2cccc3c2CN(c2ccc(C#N)cc2)CC3)CCN1C(=O)Cn1cnc2cccnc21` [Example 95, 4-{8-[(R)-4-(2-Imidazo[4,5-b]pyridin-3-yl-acetyl)-3-methyl-piperazin-1-yl]-3,4-dihydro-1H-isoquinolin-2-yl}-benzonitrile], the IC50 is 7.8 nM. For `Cc1ccc(C(=O)N2CCc3cccc(N4CCN(C(=O)Cn5cnc6cccnc65)[C@H](C)C4)c3C2)cc1` [Example 73, 2-Imidazo[4,5-b]pyridin-3-yl-1-{(R)-2-methyl-4-[2-(4-methyl-benzoyl)-1,2,3,4-tetrahydro-isoquinolin-8-yl]-piperazin-1-yl}-ethanone] the value was 111 nM; for `C[C@@H]1CN(c2cccc3c2CN(C(=O)Cc2ccccc2)CC3)CCN1C(=O)Cn1cnc2cccnc21` [Example 78, 2-Imidazo[4,5-b]pyridin-3-yl-1-[(R)-2-methyl-4-(2-phenylacetyl-1,2,3,4-tetrahydro-isoquinolin-8-yl)-piperazin-1-yl]-ethanone], 216 nM. The figure for `CCOc1ncc(N2CCc3c(C(F)(F)F)ccc(N4CCN(C(=O)CN5C(=O)Cc6ccccc65)CC4)c3C2)cn1` [Example 33, 1-(2-{4-[2-(2-Ethoxy-pyrimidin-5-yl)-5-trifluoromethyl-1,2,3,4-tetrahydro-isoquinolin-8-yl]-piperazin-1-yl}-2-oxo-ethyl)-1,3-dihydro-indol-2-one] is 10.9 nM; for `COc1nccc(N2CCc3cccc(N4CCN(C(=O)Cn5cnc6cccnc65)[C@H](C)C4)c3C2)n1` [Example 122, 2-Imidazo[4,5-b]pyridin-3-yl-1-{(R)-4-[2-(2-methoxy-pyrimidin-4-yl)-1,2,3,4-tetrahydro-isoquinolin-8-yl]-2-methyl-piperazin-1-yl}-ethanone] it is 27.9 nM; for `C[C@@H]1CN(c2cccc3c2CN(C(=O)c2ccc(Cl)cc2)CC3)CCN1C(=O)Cn1cnc2cccnc21` [Example 74, 1-{(R)-4-[2-(4-Chloro-benzoyl)-1,2,3,4-tetrahydro-isoquinolin-8-yl]-2-methyl-piperazin-1-yl}-2-imidazo[4,5-b]pyridin-3-yl-ethanone] it is 46.6 nM. The figure for `CCOc1ncc(N2CCc3c(C(F)(F)F)ccc(N4CCN(C(=O)Cn5ncc6cccnc65)CC4)c3C2)cn1` [Example 31, 1-{4-[2-(2-Ethoxy-pyrimidin-5-yl)-5-trifluoromethyl-1,2,3,4-tetrahydro-isoquinolin-8-yl]-piperazin-1-yl}-2-pyrazolo[3,4-b]pyridin-1-yl-ethanone] is 11.5 nM; for `COc1ncc(N2CCc3c(C(F)(F)F)ccc(N4CCN(C(=O)CCn5cccn5)[C@H](C)C4)c3C2)cn1` [Example 27, 1-{(R)-4-[2-(2-Methoxy-pyrimidin-5-yl)-5-trifluoromethyl-1,2,3,4-tetrahydro-isoquinolin-8-yl]-2-methyl-piperazin-1-yl}-3-pyrazol-1-yl-propan-1-one] it is 908 nM. As to `C[C@@H]1CN(c2ccc(C#N)c3c2CN(C(=O)OCc2ccccc2)CC3)CCN1C(=O)Cn1cnc2cccnc21` [Example 146, 5-Cyano-8-[(R)-4-(2-imidazo[4,5-b]pyridin-3-yl-acetyl)-3-methyl-piperazin-1-yl]-3,4-dihydro-1H-isoquinoline-2-carboxylic acid benzyl ester], the IC50 worked out at 15.6 nM. `Cn1c(=O)n(CC(=O)N2CCN(c3cccc4c3CN(C(=O)Cc3ccccc3)CC4)CC2)c2ccccc21` [Example 141, 1-Methyl-3-{2-oxo-2-[4-(2-phenylacetyl-1,2,3,4-tetrahydro-isoquinolin-8-yl)-piperazin-1-yl]-ethyl}-1,3-dihydro-benzoimidazol-2-one]: the concentration for half-maximal inhibition (IC50) is 190 nM.
